For series [1], the system named is BFU-E of Normal Bone Marrow. The method, then: (§1) The laboratory studies were performed in vitro to evaluate whether either drugs, i.e., with or without their lithium formulation when combined with either normal bone marrow cells or bone marrow cells taken from MAIDS animals would express: 1) differences in their toxicity profile when measured in culture and 2) differences comparing the responses using normal bone marrow cells versus bone marrow cells from MAIDS animals, in other words, comparing viral-infected cells with non-viral infected cells.
(§2) This table is interpreted as follows.

For series [2], the system named is CFU-GM of Normal Bone Marrow. The method, then: as §1, §2
In another series the test system is AIDS patients. Particulars: clinical use; listed as zidovudine (AZT); cited from earlier work.
In another series the test system is HIV-infected patients. The following applies: cited from earlier work.
The test system of series [3] is CFU-Meg (Megakaryocyte) of normal bone marrow cells. Nature of the series: AZT bone marrow toxicity in vitro, CFU-Meg colony formation. It is filed as cell-based. The source says: (§3) This is a standard practice.
Series [4] concerns BFU-E (Erythroid) of normal bone marrow cells. Nature of the series: AZT bone marrow toxicity in vitro, BFU-E colony formation. Format: cell-based.
Text: as §3

In series [5] the test system is CFU-GM (Myeloid) of normal bone marrow cells. As to the kind of experiment: AZT bone marrow toxicity in vitro, CFU-GM colony formation. It is filed as cell-based.
Text: as §3

Series [6] concerns HIV-positive patient with severe Factor VIII deficiency. The following applies: cited from earlier work.
The next series deals with herpes simplex virus. The following applies: in vitro, HSV; cited from earlier work.
For series [7], the system named is LP-BM5 MuLV. An excerpt: Female C57BL6 mice (8-10 weeks of age) were purchased from Harlan, Indianapolis, Ind., USA. All animals were quarantined for a minimum of 1-week before experimental use. Animals were housed in plastic cages and fed Purina lab chow and water ad libitum.
LP-BM5 MuLV isolate used in these studies was originally derived from a bone marrow stromal cell line (SC-1) harvested from animals infected with mink cell MuLV (Morse et al., 1992) and is routinely maintained in the laboratory. LP-BM5 MuLV is a retrovirus mixture containing replication-competent helper B-trophic ecotropic mink cell focus forming (MCF) virus and an etiologic 4.9-kb replication defective genome termed EM5-def, susceptibility to which depends on the presence of the FV-1b genotype permissive for B-trophic virus replication (Morse et al., 1992). Therefore, the viral pool permissive for B-trophic virus replication (Morse et al., 1992) consisted of a mixture of B-tropic ecotropic and B-tropic mink cell focus-inducing murine immunodeficiency virus (MuLV). The titers of ecotropic and MCF MuLV were determined by XC plaque assay in SC-1 cells or by SC-1 UV-mink assay. […] To minimize exogenous infection, mice were maintained in microisolator cages and handled in accordance with the NIH Guide for the Care and Use of Laboratory Animals (NIH No. 85-23, 1985). Cages, bedding and food were autoclaved prior to use and all cages and animal handling or monitoring were performed in laminar air flow hoods. Ventilation and air flow in the animal facility was set to 12 changes/h. Room temperatures were regulated at 72°±2° F. and the rooms were on automatic 12-h light/dark cycles. One hundred and twenty mice were infected by i.p. injection of 0.25 ml of LP-BM5 MuLV virus-stock (10 μg of total protein) harvested from the SC-1 cell line following 3-day in vitro culture. The development of MAIDS induced by virus was monitored by physical findings (Morse et al., 1992). […] Increased systemic levels of IgM were used to monitor the development of LP-BM5 MuLV-induced disease.
In order to evaluate the ability of lithium to influence hematopoiesis in immunodeficient virus-infected animals, the following studies were performed. One hundred and twenty mice infected with LP-BM5 were divided into two groups, i.e., 60 virus-infected mice served as virus controls and the other group was administered lithium carbonate (Li2 CO3, ultra-pure; Alpha Therapeutics, Danville, Mass. USA) placed in the drinking water at a concentration of 1 mM as previously described from this laboratory (Gallicchio et al., 1993). Lithium treatment was initiated 7 days prior to virus infection. […] Lithium was initiated 7 days before virus infection and was continued for the duration of the study. Plasma lithium levels from animals bled by cardiac puncture on the days of examination were monitored by use of flame photometry (Model no. 943, IL Instruments, Lexington, Mass. USA). Virus-infected controls and virus-infected mice treated with lithium were serially sacrificed 1, 5, 9, 13, 17 and 21 weeks following virus inoculation for determination of lithium treatment on hematopoiesis following administration in LP-BMS5 MuLV infected animals.

For series [8], the system named is LP-BM5 MuLV. The following applies: cited from earlier work.
The next series deals with normal bone marrow cells. The following applies: in vitro with normal bone marrow cells (previous work; b10 also in vivo mice); cited from earlier work.
The mark [9] stands for this setting: week 3, Lithium Control (1 mM), listed as lithium.

“Also recorded” adds a separate entry of the source. Like-named read-outs stand apart in the source and are kept apart here.

Experimental for Normal Mice: C57BL6 were administered dose-escalation AZT (1.0 mg/ml and 2.5 mg/ml) for a period of 4-weeks. […] Animals were analyzed on a weekly basis for their peripheral blood indices.
C57BL6 female mice were purchased from Harlan, Indianapolis, Ind., USA used at 6-12 weeks of age, and housed 5 to a cage. […] Mice received Purina Autoclavable Chow and water ad libitum until initiation of the study. Thereafter, water containing lithium was supplied to the animals and daily water consumption was monitored.
In order to evaluate the ability of lithium to influence the hematopoietic toxicity associated with AZT in mice that had already been exposed to AZT, the following protocol was established. […] AZT and lithium were added to the animal drinking water Groups II, III, V and VI began their AZT all at the same time. Groups V and VI, at the beginning of week 5, received lithium that was added to their water supply. All treated groups then continued to receive AZT for an additional 4 weeks, equaling a total treatment-study period lasting 8-weeks in duration.
Animals were serially sacrificed, at least three to a group, on a weekly basis, for eight consecutive weeks. Animals were bled from the tail vein (600 μl) for assessment of peripheral blood indices; i.e., packed red cell volume, white blood cell, and platelet counts. In addition, at least one femur per animal was obtained and the bone marrow cellularity was calculated using standard laboratory procedures.
Mean±SE for values comparing control with experimental, utilizing duplicate studies were determined and analyzed using the two-sample ranks test of Wilcoxam-White (P<0.05) to determine significance.

2',2'-Dideoxyinosine [ddI]: the results for the CC50 in [1] and in [2] were 1 µM and 100 µM, respectively.
On the same counts, the results for 2,3'-Dideoxycytosine [ddC] are 0.6 µM and 10 µM.
As for `Cc1cn([C@H]2C[C@H](N=[N+]=[N-])[C@@H](CO)O2)c(=O)[nH]c1=O` [AZT, 3'-azido-3'-deoxythymidine], in the series on AIDS patients, the “Toxicity of AZT” value is “myelosuppression and bone marrow toxicity; also recorded: the development of virus resistance and bone marrow suppression”. The “Tolerated AZT dose with lithium” value with HIV-infected patients is given as “up to 1,000 mg”. Moreover, the “Tolerated zidovudine dose with lithium” value with HIV-infected patients (without observable signs of toxicity (Herbert et al., 1988)) was “up to 1000 mg/day”. Also, the “CFU-Meg (Megakaryocyte) colonies” value in series [3] (AZT 0.01 μM) stood at 16.0 ± 3; in [3] (AZT 0.1 μM), 10.5 ± 3; in series [3] (AZT 1.0 μM), 6.5 ± 3; in series [3] (AZT 10.0 μM) it was 2.5 ± 2. Also, the “BFU-E (Erythroid) colonies” value in series [4] (AZT 0.01 μM) was 43.5 ± 5; in [4] (AZT 0.1 μM) it was 37.5 ± 3; in series [4] (AZT 1.0 μM), 21.5 ± 5; in [4] (AZT 10.0 μM), 14.5 ± 2. Moreover, the “CFU-GM (Myeloid) colonies” value in series [5] (AZT 0.01 μM) is on record as 53.5 ± 3; in series [5] (AZT 0.1 μM) it was 39.5 ± 3; in series [5] (AZT 1.0 μM) it was 28.5 ± 4; in [5] (AZT 10.0 μM) it was 14.5 ± 3. The “Toxicity leading to discontinuation” value in [6] (after 6 months) was “thrombocytopenia, neutropenia, and anemia”. The “Lymphocytes and monocytes” value with Normal Mice (mouse, in vivo) was “Lower, but less significant, levels”.
As for `O=C([O-])[O-].[Li+].[Li+]` [Lithium, lithium carbonate], the “DNA polymerase activity” value in the series with herpes simplex virus was “inhibition of DNA polymerase activity”. Also, the “Immune function status” value in the series with LP-BM5 MuLV [7] (murine model (MAIDS)) was “significantly improves immune function status”. For the same molecule, the “Hematopoiesis in MAIDS mice” value in the series with LP-BM5 MuLV [7] (versus animals not receiving lithium) is given as “significant hematopoiesis”. Also, the “Bone marrow BFU-E” value in the series with LP-BM5 MuLV [7] (versus viral controls) is recorded as “increased BFU-E that peaked on week 9”. The “Bone marrow CFU-GM” value with LP-BM5 MuLV [7] (versus viral controls) is given as “increased CFU-GM compared to viral controls that peaked on week 9”. Moreover, the “Bone marrow CFU-Meg” value with LP-BM5 MuLV [7] (versus viral controls) is given as “increased, although not until week 17 of examination”. Also, in the series with LP-BM5 MuLV [7] (versus viral controls), the “Splenic BFU-E” value was “increased at all time points examined”. Further, in the series on LP-BM5 MuLV [7] (versus viral controls), the “Splenic CFU-GM” value was “significantly increased at all time points compared to viral controls”. In addition, the “Splenic CFU-Meg” value with LP-BM5 MuLV [7] (versus viral controls) is listed as “increased significantly”. The “Absolute neutrophils” value in the series on LP-BM5 MuLV [7] (versus virus control group, FIG. 2a) was “increased”. The “Absolute lymphocytes” value in the series on LP-BM5 MuLV [7] (versus virus control group, FIG. 2b) was “increased”. For the same molecule, in the series on LP-BM5 MuLV [7] (versus virus-control group, FIG. 1a), the “Effect on packed red cell volume (hematocrit)” value is “decreased the reduction”. In the series with LP-BM5 MuLV [7] (versus virus-control group, FIG. 1b), the “Effect on white blood cell count” value is “decreased the reduction”. For the same molecule, the “Effect on platelets” value with LP-BM5 MuLV [7] (versus virus-control group, FIG. 1c) is reported as “decreased the reduction”. Also, the “Signs of lithium toxicity, i.e., tremor” value with LP-BM5 MuLV [7] (virus-infected mice receiving lithium) is recorded as “no demonstrable signs of lithium toxicity”. The “Patients responding with neutrophilia” value in the series with HIV-infected patients (5 AIDS patients (report)) was 3 of 5 patients; in the series on HIV-infected patients (AIDS patients (Worthington 1990)), “one of three”; in the series on HIV-infected patients (lithium at least 4 weeks, no AZT (Parenti et al., 1988)) it was 6 of 7. Moreover, in the series with HIV-infected patients, the “Patients tolerating higher doses of AZT (up to 1,000 mg)” value is reported as 3 of the 5 patients. In addition, the “Patients with significant hematopoiesis” value in the series on HIV-infected patients is “Three of the five patients”. Also, the “Lithium toxicity” value with HIV-infected patients (no AZT (Parenti et al., 1988)) is given as “further lithium usage was limited due to the presence of lithium toxicity”. Further, the “Patients demonstrating significant hematopoiesis” value in the series with HIV-infected patients (with zidovudine (Herbert et al., 1988)) is reported as “Three of the 5”. Besides, in the series with LP-BM5 MuLV [8] (LP-BM5 MuLV animals (Gallicchio et al., 1994)), the “Splenomegaly and hypergammaglobulinemia (IgM)” value is “reduction in the splenomegaly and hypergammaglobulinemia”. For the same molecule, the “Toxicity following dose-escalation of AZT” value in the series with LP-BM5 MuLV [8] (MAIDS model in vivo (Gallicchio et al., 1995)) is “reduced the immunochematopoietic toxicity”. The “Hematopoietic progenitor cells from bone marrow or spleen” value in the series on LP-BM5 MuLV [8] (in vivo, with zidovudine (literature)) was “effectively increased the number of hematopoietic progenitor cells”. Besides, in the series on normal bone marrow cells, the “Myelosuppression and marrow toxicity of AZT” value was “reduced the myelosuppression and marrow toxicity of AZT significantly”. Also, the “Absolute neutrophil and platelet counts” value in series [6] (within 3 days, 300 mg t.i.d. with methylprednisolone) is on record as “a remarkable rise”. In addition, the “Reduction in eosinophils” value with Normal Mice (AZT with lithium treatment) is on record as “prevented this reduction in eosinophils observed with AZT”. In addition, in the series on Normal Mice (following lithium, each week examined, both AZT groups), the “Thrombocytopenia” value is listed as “no thrombocytopenia”. Further, the Eosinophils in the series with Normal Mice (week 1, Lithium Control (1 mM)) is reported as 100 Percent Control; in the series on Normal Mice (week 2, Lithium Control (1 mM)), 100 Percent Control; with Normal Mice (week 3, Lithium Control (1 mM)), 100 Percent Control; with Normal Mice (week 4, Lithium Control (1 mM)) it was 100 Percent Control; with Normal Mice (week 5, Lithium Control (1 mM)), 100 Percent Control; in the series with Normal Mice (week 6, Lithium Control (1 mM)) it was 146 Percent Control. The Eosinophils came out at 100 Percent Control in the series with Normal Mice (week 7, Lithium Control (1 mM)); 110 Percent Control in the series with Normal Mice (week 8 (+ lithium from week 5 in combination group), AZT 1.0 mg/ml); 164 Percent Control in the series with Normal Mice (week 8 (+ lithium from week 5 in combination group), AZT 2.5 mg/ml (AZT column headed 2 mg/ml)); 107 Percent Control in the series with Normal Mice (week 8, Lithium Control (1 mM)). Further, the Hematocrit in the series on Normal Mice (week 1, Lithium Control (1 mM)) amounted to 98 Percent Control; in the series with Normal Mice (week 2, Lithium Control (1 mM)), 82 Percent Control; with Normal Mice (week 3, Lithium Control (1 mM)), 101 Percent Control; in the series with Normal Mice (week 4, Lithium Control (1 mM)), 100 Percent Control; in the series with Normal Mice (week 5, Lithium Control (1 mM)) it was 98 Percent Control; in the series on Normal Mice (week 6, Lithium Control (1 mM)), 94 Percent Control. Further, the Hematocrit in the series with Normal Mice (week 7, Lithium Control (1 mM)) came to 98 Percent Control; with Normal Mice (week 8, Lithium Control (1 mM)), 88 Percent Control. Also, the Neutrophils with Normal Mice (week 1, Lithium Control (1 mM)) was 100 Percent Control; in the series with Normal Mice (week 2, Lithium Control (1 mM)) it was 54 Percent Control; in the series with Normal Mice (week 3, Lithium Control (1 mM)), 65 Percent Control; in the series with Normal Mice (setting [9]), 120 Percent Control; with Normal Mice (week 4, Lithium Control (1 mM)), 61 Percent Control; in the series with Normal Mice (week 5, Lithium Control (1 mM)), 54 Percent Control. The Neutrophils in the series with Normal Mice (week 6, Lithium Control (1 mM)) is 98 Percent Control; with Normal Mice (week 7, Lithium Control (1 mM)), 120 Percent Control; in the series with Normal Mice (week 8, Lithium Control (1 mM)), 90 Percent Control. Further, the Platelets with Normal Mice (week 1, Lithium Control (1 mM)) is reported as 100 Percent Control; in the series with Normal Mice (week 2, Lithium Control (1 mM)), 93 Percent Control; in the series on Normal Mice (week 3, Lithium Control (1 mM)) it was 93 Percent Control; in the series on Normal Mice (setting [9]), 116 Percent Control; with Normal Mice (week 4, Lithium Control (1 mM)) it was 74 Percent Control; with Normal Mice (week 5, Lithium Control (1 mM)), 69 Percent Control. Besides, the Platelets was 69 Percent Control in the series with Normal Mice (week 6, Lithium Control (1 mM)); 116 Percent Control in the series with Normal Mice (week 7, Lithium Control (1 mM)); 79 Percent Control with Normal Mice (week 8, Lithium Control (1 mM)). Moreover, in the series with Normal Mice (week 8, lithium versus AZT controls), the “Hematocrit toxicity” value was “the same level of toxicity as the AZT controls”.

Values taken from patent publication US5840711A, “Compositions containing lithium inorganic salts and anti-viral drugs and method of treating viral infections such as acquired immunodeficiency syndrome” (priority 1997, dated 1998).
